≈ marks a conversion by molar mass, not a printed value. Read-outs that look alike come from different tables or passages of the source. One block for each compound: values may come before it.
Key:
[1] = test system: M. catarrhalis; assay: MIC, broth microdilution; format: cell-based, Moraxella catarrhalis; settings: M. catarrhalis 13L332, Ery-S
Procedure: MICs were determined by the microdilution method according to the Clinical and Laboratory Standards Institute guidelines. Briefly, the stock solution of compounds and the reference antibiotics were diluted 2-fold in sterile 96-well plates with cation-adjusted Mueller-Hinton broth, and mixed with CAMHB-containing bacteria to give a final inoculum of 5 × 10^5 CFU/mL for broth microdilution experiments. […] Finally, the 96-well plates were incubated at 37 °C for 16–20 h to observe and record the results. The lowest concentration at which no bacterial growth could be observed visually was identified as the MICs of the compounds. The assay for MICs was replicated at least three times.

[2] = test system: S. pyogenes; assay: MIC, broth microdilution; format: cell-based, Streptococcus pyogenes
Procedure: (§1) MICs were determined by the microdilution method according to the Clinical and Laboratory Standards Institute guidelines. […] Finally, the 96-well plates were incubated at 37 °C for 16–20 h to observe and record the results. […] The assay for MICs was replicated at least three times.

[3] = test system: S. pneumoniae; assay: MIC, broth microdilution; format: cell-based, Streptococcus pneumoniae
Procedure: as §1

[4] = test system: H. influenzae; assay: MIC, broth microdilution; format: cell-based, Haemophilus influenzae
Procedure: as §1

[5] = test system: S. aureus; assay: MIC, broth microdilution; format: cell-based, Staphylococcus aureus
Procedure: as §1

[6] = test system: S. aureus; assay: MICs and MBCs against selected S. aureus isolates; format: cell-based, Staphylococcus aureus
[7] = Moraxella catarrhalis, read-out: MIC
[8] = Streptococcus pyogenes, S. pyogenes 12-206, c-ermTR, read-out: MIC
[9] = Streptococcus pneumoniae, ATCC49619, S. pneumoniae ATCC49619, Ery-S, read-out: MIC
[10] = Streptococcus pneumoniae, S. pneumoniae 07P390, c-ermB, read-out: MIC
[11] = Haemophilus influenzae, ATCC49247, H. influenzae ATCC49247, Azi-S, read-out: MIC
[12] = Streptococcus pneumoniae, S. pneumoniae PU09, mef, read-out: MIC
[13] = Streptococcus pyogenes, S. pyogenes 01-968, i-ermTR (Table S5), read-out: MIC
[14] = Staphylococcus aureus, MRSA, strain 1, MRSA, i-ermA
[15] = Staphylococcus aureus, MRSA, strain 4, MRSA, i-ermA
[16] = Staphylococcus aureus, MRSA, strain 5, MRSA, i-ermC
[17] = Staphylococcus aureus, MRSA, strain 6, MRSA, c-ermB
[18] = Staphylococcus aureus, MRSA, strain 7, MRSA, c-ermB
[19] = Staphylococcus aureus, MRSA, strain 10, MRSA, c-ermB
[20] = Staphylococcus aureus, MRSA, strain 11, MRSA, c-ermB

MIC [1, 7]: 0.5 µg/mL (≈ 0.53 µM)
MIC [2, 8]: 4 µg/mL (≈ 4.24 µM)
MIC [3, 9]: 0.25 µg/mL (≈ 0.265 µM)
MIC ([3]; Streptococcus pneumoniae, S. pneumoniae 05O173, c-ermB, mef, read-out: MIC): 128 µg/mL (≈ 136 µM)
MIC [3, 10]: 4 µg/mL (≈ 4.24 µM)
MIC [4, 11]: 8 µg/mL (≈ 8.48 µM)
SMILES: CC[C@H]1OC(=O)[C@H](C)[C@@H](OC(=O)NCCCCCCC#Cc2ccc3c(=O)c(C(=O)O)cn(C)c3c2)[C@H](C)[C@@H](O[C@@H]2O[C@H](C)C[C@H](N(C)C)[C@H]2O)[C@](C)(O)C[C@@H](C)CN(C)[C@H](C)[C@@H](O)[C@]1(C)O [106g]

MIC [1]: 1 µg/mL (≈ 1.06 µM)
MIC ([2]; S. pyogenes 12-206, c-ermTR): 8 µg/mL (≈ 8.45 µM)
MIC ([3]; S. pneumoniae 05O173, c-ermB, mef): 128 µg/mL (≈ 135 µM)
MIC ([3]; S. pneumoniae 07P390, c-ermB): 4 µg/mL (≈ 4.22 µM)
MIC ([3]; S. pneumoniae ATCC49619, Ery-S): 0.25 µg/mL (≈ 0.264 µM)
MIC ([4]; H. influenzae ATCC49247, Azi-S): 8 µg/mL (≈ 8.45 µM)
SMILES: CC[C@H]1OC(=O)[C@H](C)[C@@H](OC(=O)NCCCCCCCCc2ccc3c(=O)c(C(=O)O)cn(C)c3c2)[C@H](C)[C@@H](O[C@@H]2O[C@H](C)C[C@H](N(C)C)[C@H]2O)[C@](C)(O)C[C@@H](C)CN(C)[C@H](C)[C@@H](O)[C@]1(C)O [107g]

MIC [2, 8]: 2 µg/mL (≈ 2.09 µM)
MIC [3, 9]: 0.06 µg/mL (≈ 0.0627 µM)
MIC [3, 10]: 2 µg/mL (≈ 2.09 µM)
MIC [3, 12]: 0.12 µg/mL (≈ 0.125 µM)
MIC ([5]; Staphylococcus aureus, S. aureus 15B196, c-ermB, read-out: MIC): 16 µg/mL (≈ 16.7 µM)
MIC ([5]; Staphylococcus aureus, S. aureus PU32, i-ermA, read-out: MIC): 2 µg/mL (≈ 2.09 µM)
MIC [4, 11]: 4 µg/mL (≈ 4.18 µM)
SMILES: CC[C@H]1OC(=O)[C@H](C)[C@@H](OC(=O)NCCCCCCC#Cc2ccc3c(=O)c(C(=O)O)cn(C)c3c2)[C@H](C)[C@@H](O[C@@H]2O[C@H](C)C[C@H](N(C)C)[C@H]2O)[C@](C)(OC)C[C@@H](C)NC(=O)[C@H](C)[C@@H](O)[C@]1(C)O [126g]

The next lines start with the compound.

SMILES: CC[C@H]1OC(=O)[C@H](C)[C@@H](O[C@H]2C[C@@](C)(OC)[C@@H](O)[C@H](C)O2)[C@H](C)[C@@H](O[C@@H]2O[C@H](C)C[C@H](N(C)C)[C@H]2O)[C@](C)(O)C[C@@H](C)CN(C)[C@H](C)[C@@H](O)[C@]1(C)O [azithromycin, reference compound]
MIC [2, 8]: > 256 µg/mL
MIC [3, 9]: 0.25 µg/mL (≈ 0.334 µM)
MIC ([3]; Streptococcus pneumoniae, S. pneumoniae 07P390, c-ermB): > 256 µg/mL
MIC [3, 12]: 8 µg/mL (≈ 10.7 µM)
MIC ([5]; Staphylococcus aureus, S. aureus 15B196, c-ermB): > 256 µg/mL
MIC ([5]; Staphylococcus aureus, S. aureus PU32, i-ermA): > 256 µg/mL
MIC [4, 11]: 2 µg/mL (≈ 2.67 µM)

SMILES: CC[C@H]1OC(=O)[C@H](C)[C@@H](O[C@H]2C[C@@](C)(OC)[C@@H](O)[C@H](C)O2)[C@H](C)[C@@H](O[C@@H]2O[C@H](C)C[C@H](N(C)C)[C@H]2O)[C@](C)(OC)C[C@@H](C)C(=O)[C@H](C)[C@@H](O)[C@]1(C)O [clarithromycin, reference compound]
MIC [1, 7]: 0.25 µg/mL (≈ 0.334 µM)
MIC ([2]; S. pyogenes 12-206, c-ermTR): 512 µg/mL (≈ 685 µM)
MIC ([2]; S. pyogenes 21C303, Clinical, c-ermB): > 64 µg/mL
MIC ([2]; S. pyogenes 21D184, Clinical, c-ermB): > 64 µg/mL
MIC ([2]; S. pyogenes 21D199, Clinical, c-ermB): > 64 µg/mL
MIC ([2]; S. pyogenes 21D200, Clinical, c-ermB): > 64 µg/mL
MIC ([2]; S. pyogenes 21K003, Clinical, mef): 2 µg/mL (≈ 2.67 µM)
MIC ([2]; S. pyogenes 21M063, Clinical, c-ermB): > 64 µg/mL
MIC ([2]; S. pyogenes 21W186, Clinical, c-ermTR): > 64 µg/mL
MIC [2, 13]: 4 µg/mL (≈ 5.35 µM)
MIC ([3]; S. pneumoniae 07P390, c-ermB): 512 µg/mL (≈ 685 µM)
MIC ([3]; S. pneumoniae 21C315, Clinical, c-ermB): > 64 µg/mL
MIC ([3]; S. pneumoniae 21D016, Clinical, c-ermB, mef): > 64 µg/mL
MIC ([3]; S. pneumoniae 21D020, Clinical, c-ermB, mef): > 64 µg/mL
MIC ([3]; S. pneumoniae 21M277, Clinical, c-ermB): > 64 µg/mL
MIC ([3]; S. pneumoniae 21Q352, Clinical, i-MLSB): 16 µg/mL (≈ 21.4 µM)
MIC ([3]; S. pneumoniae 21Q353, Clinical, i-MLSB): 8 µg/mL (≈ 10.7 µM)
MIC ([3]; S. pneumoniae 21W257, Clinical, c-ermB, mef): > 64 µg/mL
MIC ([3]; S. pneumoniae 21X435, Clinical): 0.12 µg/mL (≈ 0.16 µM)
MIC ([3]; S. pneumoniae ATCC49619): 0.12 µg/mL (≈ 0.16 µM)
MIC [3, 12]: 8 µg/mL (≈ 10.7 µM)
MIC ([5]; S. aureus 15B196, c-ermB): 512 µg/mL (≈ 685 µM)
MIC ([5]; S. aureus ATCC29213): 0.25 µg/mL (≈ 0.334 µM)
MIC ([5]; S. aureus PU32, Clinical, MRSA, i-ermA): 16 µg/mL (≈ 21.4 µM)
MIC [4, 11]: 16 µg/mL (≈ 21.4 µM)

SMILES: CC[C@H]1OC(=O)[C@@](C)(F)C(=O)[C@H](C)[C@@H](O[C@@H]2O[C@H](C)C[C@H](N(C)C)[C@H]2O)[C@](C)(OC)C[C@@H](C)C(=O)[C@H](C)[C@H]2N(CCCCn3cc(-c4cccc(N)c4)nn3)C(=O)O[C@]12C [solithromycin]
MIC [2, 13]: 0.016 µg/mL (≈ 0.0189 µM)
MIC ([2]; Streptococcus pyogenes, S. pyogenes 12-206, c-ermB (Table S5), read-out: MIC): 0.03 µg/mL (≈ 0.0355 µM)
MIC [3, 9]: 0.016 µg/mL (≈ 0.0189 µM)
MIC [3, 10]: 0.03 µg/mL (≈ 0.0355 µM)
MIC [3, 12]: 0.5 µg/mL (≈ 0.592 µM)
MBC/MIC ([6]; S. aureus ATCC29213): > 8
MIC ([6]; Staphylococcus aureus, ATCC29213, S. aureus ATCC29213 (Table S10), read-out: MIC): 0.06 µg/mL (≈ 0.071 µM)
MBC [6, 14]: > 0.5 µg/mL
MIC [6, 14]: 0.06 µg/mL (≈ 0.071 µM)
MBC [6, 15]: > 0.5 µg/mL
MIC [6, 15]: 0.06 µg/mL (≈ 0.071 µM)
MBC [6, 16]: 0.5 µg/mL (≈ 0.592 µM)
MIC [6, 16]: 0.06 µg/mL (≈ 0.071 µM)
MBC [6, 17]: > 2 µg/mL
MIC [6, 17]: 0.25 µg/mL (≈ 0.296 µM)
MBC [6, 18]: > 4 µg/mL
MIC [6, 18]: 0.5 µg/mL (≈ 0.592 µM)
MBC [6, 19]: > 2 µg/mL
MIC [6, 19]: 0.25 µg/mL (≈ 0.296 µM)
MBC [6, 20]: > 2 µg/mL
MIC [6, 20]: 0.25 µg/mL (≈ 0.296 µM)
MIC ([6]; Staphylococcus aureus, MSSA, strain 2, MSSA, i-ermC, read-out: MIC): 0.06 µg/mL (≈ 0.071 µM)
MIC ([6]; Staphylococcus aureus, MSSA, strain 3, MSSA, i-ermC, read-out: MIC): 0.06 µg/mL (≈ 0.071 µM)
MBC ([6]; Staphylococcus aureus, MSSA, strain 8, MSSA, c-ermB): 128 µg/mL (≈ 151 µM)
MIC ([6]; Staphylococcus aureus, MSSA, strain 8, MSSA, c-ermB, read-out: MIC): 16 µg/mL (≈ 18.9 µM)
MBC ([6]; Staphylococcus aureus, MSSA, strain 9, MSSA, c-ermB): > 256 µg/mL
MIC ([6]; Staphylococcus aureus, MSSA, strain 9, MSSA, c-ermB, read-out: MIC): 32 µg/mL (≈ 37.9 µM)
MBC ([6]; Staphylococcus aureus, S. aureus ATCC29213, read-out: MBC): > 0.5 µg/mL
MBC ([6]; Staphylococcus aureus, strain 3, MSSA, i-ermC, read-out: MBC): > 0.5 µg/mL
bactericidal or bacteriostatic by MBC/MIC ([6]; selected S. aureus isolates): bacteriostatic against all selected isolates
MBC/MIC ([6]; strain 1, MRSA, i-ermA): > 8
MBC ([6]; strain 2, MSSA, i-ermC): > 0.5 µg/mL
MBC/MIC ([6]; strain 2, MSSA, i-ermC): > 8
MBC/MIC ([6]; strain 3, MSSA, i-ermC): > 8
MBC/MIC ([6]; strain 4, MRSA, i-ermA): > 8
MBC/MIC ([6]; strain 5, MRSA, i-ermC): 8
MBC/MIC ([6]; strain 6, MRSA, c-ermB): > 8
MBC/MIC ([6]; strain 7, MRSA, c-ermB): > 8
MBC/MIC ([6]; strain 8, MSSA, c-ermB): 8
MBC/MIC ([6]; strain 9, MSSA, c-ermB): > 8
MBC/MIC ([6]; strain 10, MRSA, c-ermB): > 8
MBC/MIC ([6]; strain 11, MRSA, c-ermB): > 8
MIC [4, 11]: 2 µg/mL (≈ 2.37 µM)
